Results published in ChEMBL document CHEMBL1201862, “PubChem BioAssay data set” (2004).
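Each compound was tested at five concentrations against cells in 96-well plates for 48 hours. GI50: concentration for 50% inhibition of growth.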 The source made the active and inactive calls. No stated cut-off is given here; in the data, active = GI50 up to about 1.1 µM and inactive = higher.

Experiments:
Experiment in all cases: NCI tumour cell line growth inhibition, 48 h
DMS-114 = system: DMS-114
SW-620 = system: SW-620
UO-31 = system: UO-31
A498 = system: A498
M19-MEL = system: M19-MEL
RPMI-8226 = system: RPMI-8226
RXF 393 = system: RXF 393
HOP-92 = system: HOP-92
TK-10 = system: TK-10
DMS-273 = system: DMS-273
K562 = system: K562
LOX IMVI = system: LOX IMVI
LXFL 529 = system: LXFL 529
HCT-15 = system: HCT-15
SK-MEL-5 = system: SK-MEL-5
DLD-1 = system: DLD-1
U-251 = system: U-251
SF-295 = system: SF-295
SK-MEL-2 = system: SK-MEL-2
HOP-18 = system: HOP-18
CCRF-CEM = system: CCRF-CEM
IGROV-1 = system: IGROV-1
UACC-257 = system: UACC-257
HCT-116 = system: HCT-116
HOP-62 = system: HOP-62
OVCAR-5 = system: OVCAR-5
KM-20L2 = system: KM-20L2
HL-60 = system: HL-60
SNB-78 = system: SNB-78
KM12 = system: KM12
NCI-H460 = system: NCI-H460
Malme-3M = system: Malme-3M
HCC 2998 = system: HCC 2998
NCI-H23 = system: NCI-H23
MOLT-4 = system: MOLT-4
SNB-19 = system: SNB-19
OVCAR-3 = system: OVCAR-3
OVCAR-8 = system: OVCAR-8
SR = system: SR
SK-MEL-28 = system: SK-MEL-28
COLO 205 = system: COLO 205
SK-OV-3 = system: SK-OV-3
UACC-62 = system: UACC-62
SN12C = system: SN12C
M14 = system: M14
ACHN = system: ACHN
SF-539 = system: SF-539
SNB-75 = system: SNB-75
NCI-H226 = system: NCI-H226
A549 = system: A549
SF-268 = system: SF-268
HT-29 = system: HT-29
NCI-H522 = system: NCI-H522
OVCAR-4 = system: OVCAR-4
NCI/ADR-RES = system: NCI/ADR-RES
CAKI-1 = system: CAKI-1
EKVX = system: EKVX
MCF7 = system: MCF7

O=C1Sc2ccccc2C(=O)N2CCSC12 (stereo unspecified)
GI50 (DMS-114): > 100 µM (inactive) | GI50 (SW-620): > 100 µM (inactive) | GI50 (UO-31): > 100 µM (inactive) | GI50 (A498): 31 µM (inactive) | GI50 (M19-MEL): > 100 µM (inactive) | GI50 (RPMI-8226): > 100 µM (inactive) | GI50 (RXF 393): > 100 µM (inactive) | GI50 (HOP-92): > 100 µM (inactive) | GI50 (TK-10): > 100 µM (inactive) | GI50 (DMS-273): > 100 µM (inactive) | GI50 (K562): > 100 µM (inactive) | GI50 (LOX IMVI): > 100 µM (inactive) | GI50 (LXFL 529): > 100 µM (inactive) | GI50 (HCT-15): > 100 µM | GI50 (SK-MEL-5): > 100 µM (inactive) | GI50 (DLD-1): > 100 µM (inactive) | GI50 (U-251): > 100 µM (inactive) | GI50 (SF-295): > 100 µM (inactive) | GI50 (SK-MEL-2): > 100 µM (inactive) | GI50 (HOP-18): 25.6 µM (inactive) | GI50 (CCRF-CEM): > 100 µM (inactive) | GI50 (IGROV-1): > 10 µM (inactive) | GI50 (UACC-257): > 100 µM (inactive) | GI50 (HCT-116): > 100 µM (inactive) | GI50 (HOP-62): > 100 µM (inactive) | GI50 (OVCAR-5): > 100 µM (inactive) | GI50 (KM-20L2): > 100 µM (inactive) | GI50 (HL-60): 82.6 µM (inactive) | GI50 (SNB-78): > 100 µM (inactive) | GI50 (KM12): > 100 µM (inactive) | GI50 (NCI-H460): > 100 µM (inactive) | GI50 (Malme-3M): > 100 µM (inactive) | GI50 (HCC 2998): > 100 µM (inactive) | GI50 (NCI-H23): > 100 µM (inactive) | GI50 (MOLT-4): > 100 µM (inactive) | GI50 (SNB-19): > 100 µM (inactive) | GI50 (OVCAR-3): > 100 µM (inactive) | GI50 (OVCAR-8): > 100 µM (inactive) | GI50 (SR): > 100 µM (inactive) | GI50 (SK-MEL-28): > 100 µM (inactive) | GI50 (COLO 205): > 100 µM (inactive) | GI50 (SK-OV-3): > 100 µM (inactive) | GI50 (UACC-62): > 100 µM (inactive) | GI50 (SN12C): > 100 µM (inactive) | GI50 (M14): > 100 µM (inactive)

COc1cc(C2C(Cl)C(=O)N2NC(=O)c2ccc(NC(C)=O)cc2)cc(Br)c1O (stereo unspecified)
GI50 (SW-620): > 100 µM (inactive) | GI50 (UO-31): > 100 µM (inactive) | GI50 (ACHN): > 100 µM (inactive) | GI50 (M19-MEL): > 100 µM (inactive) | GI50 (RPMI-8226): > 100 µM (inactive) | GI50 (HOP-92): > 100 µM (inactive) | GI50 (TK-10): > 100 µM (inactive) | GI50 (K562): > 100 µM (inactive) | GI50 (SF-539): > 100 µM (inactive) | GI50 (LXFL 529): > 100 µM (inactive) | GI50 (SNB-75): > 100 µM (inactive) | GI50 (SK-MEL-5): > 100 µM (inactive) | GI50 (DLD-1): > 100 µM (inactive) | GI50 (U-251): > 100 µM (inactive) | GI50 (SF-295): > 100 µM (inactive) | GI50 (NCI-H226): > 100 µM (inactive) | GI50 (A549): > 100 µM (inactive) | GI50 (SK-MEL-2): > 100 µM (inactive) | GI50 (HOP-18): > 100 µM (inactive) | GI50 (CCRF-CEM): > 100 µM (inactive) | GI50 (IGROV-1): > 100 µM (inactive) | GI50 (UACC-257): > 100 µM (inactive) | GI50 (HCT-116): > 100 µM (inactive) | GI50 (HOP-62): > 100 µM (inactive) | GI50 (OVCAR-5): > 100 µM (inactive) | GI50 (HL-60): > 100 µM (inactive) | GI50 (KM12): > 100 µM (inactive) | GI50 (NCI-H460): > 100 µM (inactive) | GI50 (Malme-3M): > 100 µM (inactive) | GI50 (SF-268): > 100 µM (inactive) | GI50 (HCC 2998): > 100 µM (inactive) | GI50 (NCI-H23): > 100 µM (inactive) | GI50 (MOLT-4): > 100 µM (inactive) | GI50 (SNB-19): > 100 µM (inactive) | GI50 (HT-29): > 100 µM (inactive) | GI50 (OVCAR-3): > 100 µM (inactive) | GI50 (OVCAR-8): > 100 µM (inactive) | GI50 (SR): > 100 µM (inactive) | GI50 (SK-MEL-28): > 100 µM (inactive) | GI50 (COLO 205): > 100 µM (inactive) | GI50 (SK-OV-3): > 100 µM (inactive) | GI50 (UACC-62): > 100 µM (inactive) | GI50 (NCI-H522): > 100 µM (inactive)

COc1cccc(-c2nc3c(C(=O)NCCN(C)C)cccc3[nH]2)c1
GI50 (DMS-114): 15.3 µM (inactive) | GI50 (SW-620): 12.7 µM (inactive) | GI50 (UO-31): 11.2 µM (inactive) | GI50 (A498): 16.3 µM (inactive) | GI50 (M19-MEL): 16.3 µM (inactive) | GI50 (RPMI-8226): 13.2 µM (inactive) | GI50 (RXF 393): 20.7 µM (inactive) | GI50 (HOP-92): 18.5 µM (inactive) | GI50 (DMS-273): 11.3 µM (inactive) | GI50 (K562): 15.1 µM (inactive) | GI50 (SF-539): 17.1 µM (inactive) | GI50 (LOX IMVI): 13.3 µM (inactive) | GI50 (HCT-15): 18.9 µM | GI50 (SNB-75): 21.3 µM (inactive) | GI50 (OVCAR-4): 26.3 µM (inactive) | GI50 (SK-MEL-5): 16.7 µM (inactive) | GI50 (DLD-1): 18.5 µM (inactive) | GI50 (U-251): 23.8 µM (inactive) | GI50 (SF-295): 16.2 µM (inactive) | GI50 (NCI-H226): 14 µM (inactive) | GI50 (A549): 18.5 µM (inactive) | GI50 (SK-MEL-2): 18.8 µM (inactive) | GI50 (HOP-18): 18.4 µM (inactive) | GI50 (CCRF-CEM): 8.05 µM (inactive) | GI50 (IGROV-1): 21.4 µM (inactive) | GI50 (UACC-257): 16.1 µM (inactive) | GI50 (HCT-116): 7.73 µM (inactive) | GI50 (HOP-62): 15.1 µM (inactive) | GI50 (OVCAR-5): 19.1 µM (inactive) | GI50 (KM-20L2): 14.4 µM (inactive) | GI50 (HL-60): 15.7 µM (inactive) | GI50 (NCI/ADR-RES): 18 µM (inactive) | GI50 (SNB-78): 40.4 µM (inactive) | GI50 (KM12): 20.8 µM (inactive) | GI50 (NCI-H460): 11.1 µM (inactive) | GI50 (Malme-3M): 14 µM (inactive) | GI50 (SF-268): 13.2 µM (inactive) | GI50 (CAKI-1): 16 µM (inactive) | GI50 (EKVX): 34.4 µM (inactive) | GI50 (HCC 2998): 15.6 µM (inactive) | GI50 (NCI-H23): 19.2 µM (inactive) | GI50 (MOLT-4): 3.38 µM (inactive) | GI50 (SNB-19): 31.3 µM (inactive) | GI50 (HT-29): 11 µM (inactive) | GI50 (OVCAR-3): 22.7 µM (inactive) | GI50 (OVCAR-8): 15.7 µM (inactive) | GI50 (SK-MEL-28): 15.8 µM (inactive) | GI50 (COLO 205): 10 µM (inactive) | GI50 (SK-OV-3): 21.3 µM (inactive) | GI50 (UACC-62): 16.7 µM (inactive) | GI50 (MCF7): 21.8 µM (inactive) | GI50 (SN12C): 17.4 µM (inactive) | GI50 (NCI-H522): 15.2 µM (inactive)
